Literature values as cited in US5298246A, “Stable pharmaceutical composition and method for its production” (Kanegafuchi Kagaku Kogyo Kabushiki Kaisha, priority 1991, dated 1994).

absorbability upon oral administration: low
Structure (SMILES): COC1=C(OC)C(=O)C(C/C=C(\C)CC/C=C(\C)CC/C=C(\C)CC/C=C(\C)CC/C=C(\C)CC/C=C(\C)CC/C=C(\C)CC/C=C(\C)CC/C=C(\C)CCC=C(C)C)=C(C)C1=O [ubidecarenone]
